Measurements reported in paper PMC9030254, “Target Hopping from Protein Kinases to PXR: Identification of Small-Molecule Protein Kinase Inhibitors as Selective Modulators of Pregnane X Receptor from TüKIC Library” (Cells, 2022).

Experiments:
Experiment in all cases: Kinase profiling
Assay type in all cases: biochemical
AKT3 = target: T1, AKT3 (Homo sapiens, UniProt Q9Y243)
T1 construct: purchased ProQinase (Freiburg, Germany)
Experimental: (§1) The analysis was performed by ProQinase (Freiburg, Germany).

CAMKK1 = target: T2, CAMKK1 (Homo sapiens, UniProt Q8N5S9)
T2 construct: purchased ProQinase (Freiburg, Germany)
Experimental: as §1

CK1epsilon = target: T3, CK1epsilon (Homo sapiens, UniProt P49674)
T3 construct: purchased ProQinase (Freiburg, Germany)
Experimental: as §1

ERBB4 = target: T4, ERBB4 (Homo sapiens, UniProt Q15303)
T4 construct: purchased ProQinase (Freiburg, Germany)
T4 sequence (Q15303 26-1308): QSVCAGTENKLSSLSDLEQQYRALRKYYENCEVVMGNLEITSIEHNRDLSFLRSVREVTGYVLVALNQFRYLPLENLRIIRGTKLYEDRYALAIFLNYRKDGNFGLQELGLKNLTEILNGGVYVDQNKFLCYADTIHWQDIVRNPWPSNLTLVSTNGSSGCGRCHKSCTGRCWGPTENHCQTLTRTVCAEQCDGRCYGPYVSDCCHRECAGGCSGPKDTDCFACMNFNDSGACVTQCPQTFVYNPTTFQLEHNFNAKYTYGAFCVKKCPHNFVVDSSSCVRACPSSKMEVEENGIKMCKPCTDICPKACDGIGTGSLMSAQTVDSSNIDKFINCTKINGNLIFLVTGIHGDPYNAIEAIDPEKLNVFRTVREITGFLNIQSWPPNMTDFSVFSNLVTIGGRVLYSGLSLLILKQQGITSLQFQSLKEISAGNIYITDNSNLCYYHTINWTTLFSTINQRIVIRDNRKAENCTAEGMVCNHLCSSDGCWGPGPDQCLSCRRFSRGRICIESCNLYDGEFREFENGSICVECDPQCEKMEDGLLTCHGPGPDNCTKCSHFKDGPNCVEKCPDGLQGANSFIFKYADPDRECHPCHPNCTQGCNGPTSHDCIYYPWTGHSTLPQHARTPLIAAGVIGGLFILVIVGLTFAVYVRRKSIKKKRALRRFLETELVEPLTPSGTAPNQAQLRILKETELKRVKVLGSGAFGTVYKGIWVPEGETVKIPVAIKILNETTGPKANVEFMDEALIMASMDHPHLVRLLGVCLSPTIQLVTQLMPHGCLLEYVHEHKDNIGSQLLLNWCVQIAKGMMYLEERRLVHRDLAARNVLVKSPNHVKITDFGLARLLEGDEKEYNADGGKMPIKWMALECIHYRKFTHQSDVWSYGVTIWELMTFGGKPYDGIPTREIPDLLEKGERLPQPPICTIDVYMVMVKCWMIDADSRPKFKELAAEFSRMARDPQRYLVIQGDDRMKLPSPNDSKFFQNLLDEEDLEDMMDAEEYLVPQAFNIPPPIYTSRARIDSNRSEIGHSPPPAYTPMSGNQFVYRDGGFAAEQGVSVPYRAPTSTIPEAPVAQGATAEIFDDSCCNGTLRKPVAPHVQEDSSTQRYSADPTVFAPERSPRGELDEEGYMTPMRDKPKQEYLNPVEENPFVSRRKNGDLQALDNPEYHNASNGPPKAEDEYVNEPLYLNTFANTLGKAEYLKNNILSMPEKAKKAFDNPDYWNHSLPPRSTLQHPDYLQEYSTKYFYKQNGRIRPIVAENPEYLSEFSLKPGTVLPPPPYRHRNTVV
Experimental: as §1

ERK5 = target: T5, ERK5 (Homo sapiens, UniProt Q13164)
T5 construct: purchased ProQinase (Freiburg, Germany)
Experimental: as §1

GSK3beta = target: T6, GSK3beta (Homo sapiens, UniProt P49841)
T6 construct: purchased ProQinase (Freiburg, Germany)
Experimental: as §1

IKKepsilon = target: T7, IKKepsilon (Homo sapiens, UniProt Q14164)
T7 construct: purchased ProQinase (Freiburg, Germany)
T7 sequence (Q14164 1-716): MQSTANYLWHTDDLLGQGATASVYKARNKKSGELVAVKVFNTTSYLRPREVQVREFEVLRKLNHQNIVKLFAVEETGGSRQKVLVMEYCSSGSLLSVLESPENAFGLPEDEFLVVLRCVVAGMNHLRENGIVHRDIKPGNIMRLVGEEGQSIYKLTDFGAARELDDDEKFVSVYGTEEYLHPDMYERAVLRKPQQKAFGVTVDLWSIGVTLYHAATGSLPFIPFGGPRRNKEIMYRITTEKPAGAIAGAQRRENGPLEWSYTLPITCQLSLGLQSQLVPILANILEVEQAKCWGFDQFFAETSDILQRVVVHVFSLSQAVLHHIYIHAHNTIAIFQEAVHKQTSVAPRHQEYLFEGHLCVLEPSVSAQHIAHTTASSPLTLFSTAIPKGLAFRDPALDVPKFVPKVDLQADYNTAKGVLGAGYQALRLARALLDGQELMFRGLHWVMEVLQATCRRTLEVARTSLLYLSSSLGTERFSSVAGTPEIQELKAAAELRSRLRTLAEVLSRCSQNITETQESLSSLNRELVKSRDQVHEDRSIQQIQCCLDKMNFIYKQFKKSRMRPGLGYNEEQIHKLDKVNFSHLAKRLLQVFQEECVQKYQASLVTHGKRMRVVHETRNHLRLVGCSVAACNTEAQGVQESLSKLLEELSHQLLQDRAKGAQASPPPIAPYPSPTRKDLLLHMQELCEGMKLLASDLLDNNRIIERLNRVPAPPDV
Experimental: as §1

MELK = target: T8, MELK (Homo sapiens, UniProt Q14680)
T8 construct: purchased ProQinase (Freiburg, Germany)
Experimental: as §1

MET = target: T9, MET (Homo sapiens, UniProt P08581)
T9 construct: purchased ProQinase (Freiburg, Germany)
T9 sequence (P08581 25-1390): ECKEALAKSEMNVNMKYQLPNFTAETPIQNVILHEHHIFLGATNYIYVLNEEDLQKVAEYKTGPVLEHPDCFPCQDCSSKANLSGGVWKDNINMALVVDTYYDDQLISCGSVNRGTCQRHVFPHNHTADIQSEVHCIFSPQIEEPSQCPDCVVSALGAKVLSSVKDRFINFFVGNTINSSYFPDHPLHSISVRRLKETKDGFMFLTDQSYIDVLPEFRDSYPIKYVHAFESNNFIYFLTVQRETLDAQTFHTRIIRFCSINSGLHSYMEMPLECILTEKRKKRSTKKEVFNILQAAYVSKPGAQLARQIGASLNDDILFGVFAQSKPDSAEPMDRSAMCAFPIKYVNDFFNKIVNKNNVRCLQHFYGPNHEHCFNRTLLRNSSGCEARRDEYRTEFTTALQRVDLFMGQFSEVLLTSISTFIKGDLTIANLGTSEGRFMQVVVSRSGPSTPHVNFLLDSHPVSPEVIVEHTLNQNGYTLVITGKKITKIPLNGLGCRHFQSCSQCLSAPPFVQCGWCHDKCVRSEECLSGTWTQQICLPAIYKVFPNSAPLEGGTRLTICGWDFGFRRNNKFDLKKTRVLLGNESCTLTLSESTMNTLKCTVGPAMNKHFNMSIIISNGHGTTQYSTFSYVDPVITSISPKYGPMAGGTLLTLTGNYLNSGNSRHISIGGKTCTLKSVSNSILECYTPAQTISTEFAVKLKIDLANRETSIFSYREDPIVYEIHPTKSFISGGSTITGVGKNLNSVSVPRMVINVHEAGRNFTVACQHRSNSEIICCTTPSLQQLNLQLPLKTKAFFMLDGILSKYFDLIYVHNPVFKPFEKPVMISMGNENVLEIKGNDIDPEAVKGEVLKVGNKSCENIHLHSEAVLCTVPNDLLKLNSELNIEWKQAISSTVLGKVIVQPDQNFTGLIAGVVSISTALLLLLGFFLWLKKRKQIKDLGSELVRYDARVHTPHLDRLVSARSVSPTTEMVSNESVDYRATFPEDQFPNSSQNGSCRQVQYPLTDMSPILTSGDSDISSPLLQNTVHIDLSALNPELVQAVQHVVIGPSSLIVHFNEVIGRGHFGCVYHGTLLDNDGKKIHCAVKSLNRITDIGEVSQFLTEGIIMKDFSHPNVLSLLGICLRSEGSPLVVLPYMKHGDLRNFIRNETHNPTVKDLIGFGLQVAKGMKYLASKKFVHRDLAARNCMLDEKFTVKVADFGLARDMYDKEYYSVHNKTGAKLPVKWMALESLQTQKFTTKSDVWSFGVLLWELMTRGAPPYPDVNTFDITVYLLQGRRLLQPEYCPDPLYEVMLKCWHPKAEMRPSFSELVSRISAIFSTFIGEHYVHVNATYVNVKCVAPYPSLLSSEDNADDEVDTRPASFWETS
Experimental: as §1

MYLK2 = target: T10, MYLK2 (Homo sapiens, UniProt Q9H1R3)
T10 construct: purchased ProQinase (Freiburg, Germany)
Experimental: as §1

PDGFRalpha = target: T11, PDGFRalpha (Homo sapiens, UniProt P16234)
T11 construct: purchased ProQinase (Freiburg, Germany)
Experimental: as §1

RET = target: T12, RET (Homo sapiens, UniProt P07949)
T12 construct: purchased ProQinase (Freiburg, Germany)
T12 sequence (P07949 29-1114): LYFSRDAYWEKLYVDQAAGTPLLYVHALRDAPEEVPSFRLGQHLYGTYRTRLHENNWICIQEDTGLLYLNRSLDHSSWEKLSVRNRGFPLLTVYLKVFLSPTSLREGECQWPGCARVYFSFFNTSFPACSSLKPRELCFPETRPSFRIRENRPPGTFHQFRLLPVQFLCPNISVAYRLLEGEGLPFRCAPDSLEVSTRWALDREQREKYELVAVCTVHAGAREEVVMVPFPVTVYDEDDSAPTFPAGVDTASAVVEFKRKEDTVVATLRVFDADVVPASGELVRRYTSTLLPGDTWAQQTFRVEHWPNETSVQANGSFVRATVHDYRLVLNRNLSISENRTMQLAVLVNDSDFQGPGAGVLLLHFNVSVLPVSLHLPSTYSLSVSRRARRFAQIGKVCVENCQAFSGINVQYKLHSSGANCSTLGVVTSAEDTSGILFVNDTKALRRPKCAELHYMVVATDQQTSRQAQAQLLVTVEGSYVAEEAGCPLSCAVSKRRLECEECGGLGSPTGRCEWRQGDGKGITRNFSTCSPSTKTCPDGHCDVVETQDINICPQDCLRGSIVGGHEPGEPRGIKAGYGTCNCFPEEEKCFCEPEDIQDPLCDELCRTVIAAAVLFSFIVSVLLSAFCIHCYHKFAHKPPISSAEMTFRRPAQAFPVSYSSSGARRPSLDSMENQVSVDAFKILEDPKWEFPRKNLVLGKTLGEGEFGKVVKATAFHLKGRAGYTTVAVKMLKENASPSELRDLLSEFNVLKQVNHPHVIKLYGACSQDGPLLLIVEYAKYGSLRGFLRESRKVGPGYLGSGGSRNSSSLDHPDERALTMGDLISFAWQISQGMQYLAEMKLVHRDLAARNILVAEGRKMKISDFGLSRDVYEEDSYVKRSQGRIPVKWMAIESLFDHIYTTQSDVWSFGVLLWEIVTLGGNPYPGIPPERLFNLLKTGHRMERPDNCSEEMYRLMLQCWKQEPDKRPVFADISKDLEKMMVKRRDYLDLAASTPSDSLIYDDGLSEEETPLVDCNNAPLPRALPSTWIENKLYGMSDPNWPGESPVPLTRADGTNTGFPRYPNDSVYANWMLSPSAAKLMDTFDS
Experimental: as §1

RPS6KA4 = target: T13, RPS6KA4 (Homo sapiens, UniProt O75676)
T13 construct: purchased ProQinase (Freiburg, Germany)
Experimental: as §1

STK25 = target: T14, STK25 (Homo sapiens, UniProt O00506)
T14 construct: purchased ProQinase (Freiburg, Germany)
T14 sequence (O00506 whole entry): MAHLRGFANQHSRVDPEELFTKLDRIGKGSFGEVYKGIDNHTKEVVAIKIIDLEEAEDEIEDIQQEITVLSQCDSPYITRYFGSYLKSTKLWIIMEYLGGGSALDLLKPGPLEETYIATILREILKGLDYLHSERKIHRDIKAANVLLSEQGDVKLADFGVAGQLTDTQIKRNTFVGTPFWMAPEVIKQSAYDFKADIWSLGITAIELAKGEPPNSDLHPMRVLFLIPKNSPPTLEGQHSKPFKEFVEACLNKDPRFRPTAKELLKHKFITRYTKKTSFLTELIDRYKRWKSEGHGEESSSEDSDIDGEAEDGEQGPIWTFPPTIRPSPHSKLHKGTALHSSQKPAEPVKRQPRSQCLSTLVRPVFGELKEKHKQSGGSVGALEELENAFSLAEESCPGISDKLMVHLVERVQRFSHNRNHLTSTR
Experimental: as §1

TLK1 = target: T15, TLK1 (Homo sapiens, UniProt Q9UKI8)
T15 construct: purchased ProQinase (Freiburg, Germany)
T15 sequence (Q9UKI8 1-766): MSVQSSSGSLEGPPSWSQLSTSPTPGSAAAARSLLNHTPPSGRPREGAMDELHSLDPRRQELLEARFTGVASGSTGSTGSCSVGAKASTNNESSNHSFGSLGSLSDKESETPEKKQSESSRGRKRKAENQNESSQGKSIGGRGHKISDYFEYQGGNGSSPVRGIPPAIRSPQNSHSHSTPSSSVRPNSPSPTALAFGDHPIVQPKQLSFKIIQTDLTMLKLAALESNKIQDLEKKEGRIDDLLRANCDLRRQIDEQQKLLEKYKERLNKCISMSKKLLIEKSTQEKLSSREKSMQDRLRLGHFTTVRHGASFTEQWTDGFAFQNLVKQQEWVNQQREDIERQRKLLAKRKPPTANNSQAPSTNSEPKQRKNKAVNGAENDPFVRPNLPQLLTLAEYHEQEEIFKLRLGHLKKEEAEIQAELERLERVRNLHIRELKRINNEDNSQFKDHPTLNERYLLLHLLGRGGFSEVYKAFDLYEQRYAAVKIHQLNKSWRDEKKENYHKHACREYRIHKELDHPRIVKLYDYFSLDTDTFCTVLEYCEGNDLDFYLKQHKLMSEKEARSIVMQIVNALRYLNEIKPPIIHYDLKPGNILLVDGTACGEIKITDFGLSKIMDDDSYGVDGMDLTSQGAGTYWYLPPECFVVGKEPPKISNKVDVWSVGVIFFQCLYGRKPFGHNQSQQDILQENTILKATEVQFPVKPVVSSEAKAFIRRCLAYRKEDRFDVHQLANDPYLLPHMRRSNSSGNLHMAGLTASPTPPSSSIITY
Experimental: as §1

TLK2 = target: T16, TLK2 (Homo sapiens, UniProt Q86UE8)
T16 construct: purchased ProQinase (Freiburg, Germany)
T16 sequence (Q86UE8 whole entry): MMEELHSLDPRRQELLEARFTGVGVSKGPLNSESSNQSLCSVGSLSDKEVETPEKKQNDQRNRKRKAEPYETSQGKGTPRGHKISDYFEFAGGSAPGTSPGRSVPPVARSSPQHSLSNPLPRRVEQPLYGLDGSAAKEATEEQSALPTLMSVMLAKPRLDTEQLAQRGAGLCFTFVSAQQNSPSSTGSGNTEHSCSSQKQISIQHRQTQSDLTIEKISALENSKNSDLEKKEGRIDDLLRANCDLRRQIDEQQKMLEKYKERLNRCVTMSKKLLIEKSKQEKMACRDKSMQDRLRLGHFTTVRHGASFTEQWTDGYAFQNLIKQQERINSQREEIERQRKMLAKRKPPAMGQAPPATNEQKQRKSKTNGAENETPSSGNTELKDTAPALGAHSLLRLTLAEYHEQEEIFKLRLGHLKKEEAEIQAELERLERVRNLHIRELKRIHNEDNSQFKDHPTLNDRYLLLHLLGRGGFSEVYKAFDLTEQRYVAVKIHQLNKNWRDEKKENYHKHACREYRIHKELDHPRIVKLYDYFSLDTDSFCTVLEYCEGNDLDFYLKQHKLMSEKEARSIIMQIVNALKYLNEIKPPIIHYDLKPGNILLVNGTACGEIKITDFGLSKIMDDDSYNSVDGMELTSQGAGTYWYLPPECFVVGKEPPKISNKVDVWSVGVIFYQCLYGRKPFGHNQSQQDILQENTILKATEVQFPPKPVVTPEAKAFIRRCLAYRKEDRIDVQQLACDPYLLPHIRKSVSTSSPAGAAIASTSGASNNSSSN
Experimental: as §1

YES = target: T17, YES (Homo sapiens, UniProt P07947)
T17 construct: purchased ProQinase (Freiburg, Germany)
Experimental: as §1

In the case of `O=C(Cc1ccccc1)Nc1ccc(F)c(Nc2ccc3c(c2)CCCCC3=O)c1` [Compound 100], the Residual activity (AKT3; 1.0E-05 M) is reported as 100 % of control, the Residual activity (AKT3; 1.0E-06 M) is reported as 114 % of control and the Residual activity (CAMKK1; 1.0E-05 M) is reported as 80 % of control. The Residual activity (CAMKK1; 1.0E-06 M) was 78 % of control, the Residual activity (CK1epsilon; 1.0E-05 M) was 117 % of control and the Residual activity (CK1epsilon; 1.0E-06 M) was 107 % of control. For the same compound, the Residual activity (ERBB4; 1.0E-05 M) was 71 % of control, the Residual activity (ERBB4; 1.0E-06 M) was 97 % of control and the Residual activity (ERK5; 1.0E-05 M) was 103 % of control. For the same compound, the Residual activity (ERK5; 1.0E-06 M) was 80 % of control, the Residual activity (GSK3beta; 1.0E-05 M) was 88 % of control and the Residual activity (GSK3beta; 1.0E-06 M) was 88 % of control. The Residual activity (IKKepsilon; 1.0E-05 M) was 101 % of control, the Residual activity (IKKepsilon; 1.0E-06 M) was 103 % of control and the Residual activity (MELK; 1.0E-05 M) was 90 % of control. For the same compound, the Residual activity (MELK; 1.0E-06 M) was 93 % of control, the Residual activity (MET; 1.0E-05 M) was 89 % of control and the Residual activity (MET; 1.0E-06 M) was 101 % of control. The Residual activity (MYLK2; 1.0E-05 M) was 82 % of control, the Residual activity (MYLK2; 1.0E-06 M) was 93 % of control and the Residual activity (PDGFRalpha; 1.0E-05 M) was 95 % of control. The Residual activity (PDGFRalpha; 1.0E-06 M) was 107 % of control, the Residual activity (RET; 1.0E-05 M) was 70 % of control and the Residual activity (RET; 1.0E-06 M) was 91 % of control. For the same compound, the Residual activity (RPS6KA4; 1.0E-05 M) was 93 % of control, the Residual activity (RPS6KA4; 1.0E-06 M) was 93 % of control and the Residual activity (STK25; 1.0E-05 M) was 89 % of control. For the same compound, the Residual activity (STK25; 1.0E-06 M) was 100 % of control, the Residual activity (TLK1; 1.0E-05 M) was 131 % of control and the Residual activity (TLK1; 1.0E-06 M) was 125 % of control. The Residual activity (TLK2; 1.0E-05 M) was 162 % of control, the Residual activity (TLK2; 1.0E-06 M) was 135 % of control and the Residual activity (YES; 1.0E-05 M) was 70 % of control. For the same compound, the Residual activity (YES; 1.0E-06 M) was 87 % of control.
In the case of `O=C(Nc1ccc(F)c(Nc2ccc3c(c2)CCCCC3=O)c1)c1cccc(F)c1` [Compound 109], the Residual activity (AKT3; 1.0E-05 M) is reported as 102 % of control, the Residual activity (AKT3; 1.0E-06 M) is reported as 95 % of control and the Residual activity (CAMKK1; 1.0E-05 M) is reported as 75 % of control. For the same compound, the Residual activity (CAMKK1; 1.0E-06 M) was 77 % of control, the inhibition at 10 µM (CK1epsilon; 10 µM, read-out: inhibition of CK1-ε) was ≥ 50% and the Residual activity (CK1epsilon; 1.0E-05 M) was 15 % of control. For the same compound, the Residual activity (CK1epsilon; 1.0E-06 M) was 52 % of control, the Residual activity (ERBB4; 1.0E-05 M) was 81 % of control and the Residual activity (ERBB4; 1.0E-06 M) was 98 % of control. The Residual activity (ERK5; 1.0E-05 M) was 93 % of control, the Residual activity (ERK5; 1.0E-06 M) was 90 % of control and the Residual activity (GSK3beta; 1.0E-05 M) was 90 % of control. For the same compound, the Residual activity (GSK3beta; 1.0E-06 M) was 82 % of control, the Residual activity (IKKepsilon; 1.0E-05 M) was 92 % of control and the Residual activity (IKKepsilon; 1.0E-06 M) was 95 % of control. The Residual activity (MELK; 1.0E-05 M) was 90 % of control, the Residual activity (MELK; 1.0E-06 M) was 107 % of control and the Residual activity (MET; 1.0E-05 M) was 91 % of control. For the same compound, the Residual activity (MET; 1.0E-06 M) was 95 % of control, the Residual activity (MYLK2; 1.0E-05 M) was 79 % of control and the Residual activity (MYLK2; 1.0E-06 M) was 85 % of control. The Residual activity (PDGFRalpha; 1.0E-05 M) was 92 % of control, the Residual activity (PDGFRalpha; 1.0E-06 M) was 96 % of control and the Residual activity (RET; 1.0E-05 M) was 89 % of control. For the same compound, the Residual activity (RET; 1.0E-06 M) was 95 % of control, the Residual activity (RPS6KA4; 1.0E-05 M) was 95 % of control and the Residual activity (RPS6KA4; 1.0E-06 M) was 95 % of control. The Residual activity (STK25; 1.0E-05 M) was 91 % of control, the Residual activity (STK25; 1.0E-06 M) was 90 % of control and the Residual activity (TLK1; 1.0E-05 M) was 114 % of control. The Residual activity (TLK1; 1.0E-06 M) was 103 % of control, the Residual activity (TLK2; 1.0E-05 M) was 207 % of control and the Residual activity (TLK2; 1.0E-06 M) was 120 % of control. For the same compound, the Residual activity (YES; 1.0E-05 M) was 77 % of control and the Residual activity (YES; 1.0E-06 M) was 98 % of control.
